Results published in patent US20230250096A1, “SUBSTITUTED PHENYL-1H-PYRROLO[2,3-c] PYRIDINE DERIVATIVES” (Janssen Pharmaceutica NV, priority 2021, published 2023).
Where two headings read alike, the source gives them in different places.

Legend:
[1] = target: T1, menin/MLL (terbium chelate-labeled menin, FITC-MBM1 peptide) (Homo sapiens, UniProt O00255, T541A); assay: Menin/MLL homogenous time-resolved fluorescence (HTRF) assay; format: binding; settings: 30 min incubation
T1 construct: Menin (a.a 1-610-6xhis tag, 2.3 mg/mL in 20 mM Hepes)
T1 sequence (O00255 with tags, fused parts or gaps T541A): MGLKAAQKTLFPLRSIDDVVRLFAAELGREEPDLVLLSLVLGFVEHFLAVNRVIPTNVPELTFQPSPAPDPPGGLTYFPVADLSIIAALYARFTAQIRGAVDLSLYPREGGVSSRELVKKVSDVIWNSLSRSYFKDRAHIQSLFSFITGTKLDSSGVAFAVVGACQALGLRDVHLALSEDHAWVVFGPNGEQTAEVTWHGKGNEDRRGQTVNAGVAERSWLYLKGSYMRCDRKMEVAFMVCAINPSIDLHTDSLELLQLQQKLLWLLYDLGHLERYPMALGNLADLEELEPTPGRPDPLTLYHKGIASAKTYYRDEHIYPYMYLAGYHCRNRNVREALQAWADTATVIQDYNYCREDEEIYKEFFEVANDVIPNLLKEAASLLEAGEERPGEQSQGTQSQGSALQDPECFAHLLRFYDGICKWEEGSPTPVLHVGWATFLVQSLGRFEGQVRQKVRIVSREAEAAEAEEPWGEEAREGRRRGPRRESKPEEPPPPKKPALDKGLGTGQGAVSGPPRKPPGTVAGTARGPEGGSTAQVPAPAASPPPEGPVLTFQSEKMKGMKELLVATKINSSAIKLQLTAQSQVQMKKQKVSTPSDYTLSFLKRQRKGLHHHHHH
Method in brief: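 Competition binding read by time-resolved FRET (FITC 520 nm over terbium 490 nm) after compound meets labeled menin 1-610-His […] for 30 min, then FITC-MBM1 (75 nM) for 15 min, ambient temperature, 0.5% DMSO. Eleven-point four-fold dilutions, usually starting at 10 μM, fitted to four-parameter curves for IC50.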

MOLM14 cells = assay: Proliferation assay (spheroid confluence, 8 days), MOLM14; format: cell-based, human; settings: read-out: spheroid assay_MOLM14 IC50
Method: The anti-proliferative effect of menin/MLL protein/protein interaction inhibitor test compounds was assessed in human leukemia cell lines. The cell line MOLM14 harbors a MLL translocation and expresses the MLL fusion protein MLL-AF9, respectively, as well as the wildtype protein from the second allele. OCI-AML3 cells that carry the NPM1c gene mutation were also tested. […] KO-52 was used as a control cell line containing two MLL (KMT2A) wildtype alleles in order to exclude compounds that display general cytotoxic effects.
MOLM14 cells were cultured in RPMI-1640 (Sigma Aldrich) supplemented with 10% heat-inactivated fetal bovine serum (HyClone), 2 mM L-glutamine (Sigma Aldrich) and 50 μg/ml gentamycin (Gibco). KO-52 and OCI-AML3 cell lines were propagated in alpha-MEM (Sigma Aldrich) supplemented with 20% heat-inactivated fetal bovine serum (HyClone), 2 mM L-glutamine (Sigma Aldrich) and 50 μg/ml gentamycin (Gibco).
In order to assess the anti-proliferative effects, 200 MOLM14 cells, 200 OCI-AML3 cells or 300 KO-52 cells were seeded in 200 μl media per well in 96-well round bottom, ultra-low attachment plates (Costar, catalogue number 7007). Cell seeding numbers were chosen based on growth curves to ensure linear growth throughout the experiment. Test compounds were added at different concentrations and the DMSO content was normalized to 0.3%. Cells were incubated for 8 days at 37° C. and 5% CO2. Spheroid like growth was measured in real-time by live-cell imaging (IncuCyteZOOM, Essenbio, 4×objective) acquiring images at day 8. Confluence (%) as a measure of spheroid size was determined using an integrated analysis tool.
In order to determine the effect of the test compounds over time, the confluence in each well as a measure of spheroid size, was calculated. Confluence of the highest dose of a reference compound was used as baseline for the LC (Low control) and the confluence of DMSO treated cells was used as 0% cytotoxicity (High Control, HC).
Absolute IC50 values were calculated as percent change in confluence as follows:
LC=Low Control: cells treated with e.g. 1 μM of the cytotoxic agent staurosporin, or e.g. cells treated with a high concentration of an alternative reference compound
HC=High Control: Mean confluence (%) (DMSO treated cells)
% Effect=100−(100*(Sample−LC)/(HC−LC))
GraphPad Prism (version 7.00) was used to calculate the IC50. Dose-response equation was used for the plot of % Effect vs Log10 compound concentration with a variable slope and fixing the maximum to 100% and the minimum to 0%.

MEIS1 mRNA expression = MEIS1 mRNA expression assay (Quantigene Singleplex) in MOLM14 cells; format: cell-based, human; settings: 48 hours incubation
Method in brief: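 Read-out: MEIS1 transcript counts, background-subtracted and divided by RPL28, expressed as fold change over DMSO-treated cells, then dose-response modelled for IC50. MOLM14 cells (3,750/well) received graded compound for 48 h before lysis and QuantiGene hybridization at 55 °C.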

Row | SMILES | IC50 [1] | IC50 (MOLM14 cells; Homo sapiens, MOLM-14, MOLM14) | IC50 (MEIS1 mRNA expression; Homo sapiens, MOLM-14, 48 h) | IC50 (MOLM14 cells; MOLM14) | IC50 (MEIS1 mRNA expression)
1 | Cc1cncc2c1c(C[C@H]1CCN(CC3CCC(=O)NC3)C1)cn2-c1ccc(F)cc1C(=O)N(C)C(C)C (mixture of isomers) [Compound 88] | 0.093 nM | 96 nM | 140 nM |  | 
2 | Cc1cncc2c1c(C[C@@H]1CCN(CC3CCN(C)C(=O)C3)C1)cn2-c1ccc(F)cc1C(=O)N(C)C(C)C (mixture of isomers) [Compound 171] | 0.581 nM | 337 nM | > 1000 nM |  | 
3 | Cc1cncc2c1c(C[C@H]1CCN([C@H](C)C3CCOCC3)C1)cn2-c1ccc(F)cc1C(=O)N(C)C(C)C (single isomer, unassigned) [Compound 49a] | 0.227 nM | 113 nM | 221 nM |  | 
4 | CN=S(=O)(c1cc(F)ccc1-n1cc(CC2CCN(CC3CCOCC3)C2)c2c(C)cncc21)C(C)C (single isomer, unassigned) [Compound 77a] | 0.105 nM |  |  | 117 nM | 206 nM
5 | Cc1cncc2c1c(C[C@@H]1CCN(CC3CCOCC3)C1)cn2-c1ccc(F)cc1[S@@](=N)(=O)C(C)C (single isomer, unassigned) [Compound 78c] | 0.382 nM | 200 nM | 416 nM |  | 
6 | COCC(=O)N1CCC(C(C)N2CCC(Cc3cn(-c4ccc(F)cc4C(=O)N(C)C(C)C)c4cncc(C)c34)C2)CC1 (single isomer, unassigned) [Compound 117b] | 0.27 nM |  |  | 300 nM | 411 nM
7 | CC(=O)N1CCC(C)(CN2CC[C@H](Cc3cn(-c4ccc(F)cc4C(=O)N(C)C(C)C)c4cncc(C)c34)C2)CC1 (single isomer, unassigned) [Compound 122] | 0.05 nM | 12 nM | 18 nM |  | 
8 | Cc1cncc2c1c(CC1CCN(CC3(C)CCN(C(=O)CO)CC3)C1)cn2-c1ccc(F)cc1C(=O)N(C)C(C)C (single isomer, unassigned) [Compound 123] | 0.052 nM | 16 nM | 31 nM |  | 
9 | Cc1cncc2c1c(CC1CCN(CC3CCN(C(=O)C(C)(C)C#N)CC3)C1)cn2-c1ccc(F)cc1C(=O)N(C)C(C)C (single isomer, unassigned) [Compound 126] | 0.091 nM | 18 nM | 32 nM |  | 
10 | CN=[S@](=O)(c1cc(F)ccc1-n1cc(C[C@H]2CCN(CC3CCN(C(C)=O)CC3)C2)c2c(C)cncc21)C(C)C (single isomer, unassigned) [Compound 128b] | 0.045 nM | 40 nM | 65 nM |  | 
11 | CN=[S@@](=O)(c1cc(F)ccc1-n1cc(C[C@H]2CCN(CC3CCN(C(C)=O)CC3)C2)c2c(C)cncc21)C(C)C (single isomer, unassigned) [Compound 128d] | 0.104 nM | 89 nM | 419 nM |  | 
12 | CC(=O)N1CCC(CN2CC[C@@H](Cc3cn(-c4ccc(F)cc4C(=O)N(C)C(C)C)c4cncc(C)c34)C2)CC1 [Compound 51] | 0.042 nM | 8 nM |  |  | 
13 | Cc1cncc2c1c(CC1CCN(CC3CCN(C(=O)C(C)C)CC3)C1)cn2-c1ccc(F)cc1C(=O)N1CC(O)CC1C (stereo not shown) [Compound 332] | 0.13 nM |  | 196 nM |  | 
14 | Cc1cncc2c1c(C[C@@H]1CCN(CC3CCN(C(=O)C(C)C)CC3)C1)cn2-c1ccc(F)cc1C(=O)N1CC(O)CC1C (stereo partly shown) [Compound 333] | 0.251 nM |  | ~394 nM |  | 
15 | COC(=O)N1CCC(CN2CC[C@@H](Cc3cn(-c4ccc(F)cc4C(=O)N(CCO)C(C)C)c4cncc(C)c34)C2)CC1 [Compound 334] | 0.224 nM |  | 12 nM |  | 
16 | COC(=O)N1CCC(CN2CC[C@@H](Cc3cn(-c4ccc(F)cc4C(=O)N(C[C@H](C)O)C(C)C)c4cncc(C)c34)C2)CC1 [Compound 335] | 0.193 nM |  | 18 nM |  | 

Row | SMILES | IC50 [1] | IC50 (MOLM14 cells; Homo sapiens, MOLM-14, MOLM14) | IC50 (MEIS1 mRNA expression; Homo sapiens, MOLM-14, 48 h) | IC50 (MOLM14 cells; MOLM14) | IC50 (MEIS1 mRNA expression)
17 | COC(=O)N1CCC(CN2CC[C@@H](Cc3cn(-c4ccc(F)cc4C(=O)N(C[C@@H](C)O)C(C)C)c4cncc(C)c34)C2)CC1 [Compound 336] | 0.128 nM |  | 33 nM |  | 
18 | CC(=O)N1CCC(C)(CN2CC[C@@H](Cc3cn(-c4ccc(F)cc4C(=O)N(CCO)C(C)C)c4cncc(C)c34)C2)CC1 [Compound 337] | 0.092 nM |  | 24 nM |  | 
19 | CC(=O)N1CCC(C)(CN2CC[C@@H](Cc3cn(-c4ccc(F)cc4C(=O)N(C[C@H](C)O)C(C)C)c4cncc(C)c34)C2)CC1 [Compound 338] | 0.185 nM |  | 37 nM |  | 
20 | CC(=O)N1CCC(C)(CN2CC[C@@H](Cc3cn(-c4ccc(F)cc4C(=O)N(C[C@@H](C)O)C(C)C)c4cncc(C)c34)C2)CC1 [Compound 339] | 0.193 nM |  | 68 nM |  | 
21 | Cc1cncc2c1c(C[C@@H]1CCN(CC3CCN(C(=O)C(C)(C)O)CC3)C1)cn2-c1ccc(F)cc1C(=O)N1CCCC12CC2 [Compound 340] | 0.034 nM |  | > 1000 nM |  | 
22 | Cc1cncc2c1c(C[C@@H]1CCN(CC3CCN(C(=O)C(C)(C)O)CC3)C1)cn2-c1ccc(F)cc1C(=O)N1CCC2CC21 (stereo partly shown) [Compound 341] | 0.037 nM |  | 20 nM |  | 
23 | CCC1CCCN1C(=O)c1cc(F)ccc1-n1cc(C[C@@H]2CCN(CC3CCN(C(=O)C(C)(C)O)CC3)C2)c2c(C)cncc21 (stereo partly shown) [Compound 342] | 0.188 nM |  | 107 nM |  | 
24 | Cc1cncc2c1c(C[C@@H]1CCN(CC3CCN(C(=O)C(C)(C)O)CC3)C1)cn2-c1ccc(F)cc1C(=O)N1[C@H](C)CC[C@H]1C [Compound 343] | 0.045 nM |  | 13 nM |  | 
25 | Cc1cncc2c1c(C[C@@H]1CCN(CC3CCN(C(=O)C(C)(C)O)CC3)C1)cn2-c1ccc(F)cc1C(=O)N1[C@H](C)CC[C@@H]1C [Compound 344] | ~0.058 nM |  | 14 nM |  | 
26 | Cc1cncc2c1c(C[C@@H]1CCN(CC3CCN(C(=O)C(C)(C)O)CC3)C1)cn2-c1ccc(F)cc1C(=O)N1CC2CC1CO2 (stereo partly shown) [Compound 345] | 0.204 nM |  | 36 nM |  | 
27 | CC(=O)N1CC2CC(CN3CC[C@@H](Cc4cn(-c5ccc(F)cc5C(=O)N5CCC[C@H]5CO)c5cncc(C)c45)C3)CC(C2)C1 (stereo partly shown) [Compound 349] | 6.68 nM |  | > 1000 nM |  | 
28 | CC(=O)N1CC2CC(CN3CC[C@@H](Cc4cn(-c5ccc(F)cc5C(=O)N(CC(C)O)C(C)C)c5cncc(C)c45)C3)CC(C2)C1 (stereo partly shown) [Compound 350] | 0.583 nM |  | ~1000 nM |  | 
29 | CC(=O)N1CCC(CN2CC[C@@H](Cc3cn(-c4ccc(F)cc4C(=O)N4[C@H](C)CC[C@H]4C)c4cncc(C)c34)C2)CC1 [Compound 354] | 0.04 nM |  | 18 nM |  | 
30 | Cc1cncc2c1c(C[C@@H]1CCN(CC3CCOCC3)C1)cn2-c1ccc(F)cc1C(=O)N1CCC[C@H]1CO [Compound 360] | 0.127 nM |  | 107 nM |  | 
31 | Cc1cncc2c1c(C[C@@H]1CN[C@H](C)C1)cn2-c1ccc(F)cc1C(=O)N(C)C(C)C [Compound 504] | 23.9 nM |  | > 1000 nM |  | 
